The nature of the experiment: non-covalent RecA intein splicing inhibitors, dose response, biochemical, cell-free, fluorescence, secondary screen (AID 449750).

Activity calls are given as the source filed them. How the calls were made is not given here.

For `CCCCn1c(N)c(C(=O)NCc2cccs2)c2nc3ccccc3nc21`, the AC50 – broadly, the midpoint of the concentration-response curve, whichever way the signal moves – was > 38 µM (inactive).
For the compound `CC1=NN(c2ccccc2)C(=O)C1`, the concentration at half-maximal activity (AC50) is 3.24 µM.
Take `COc1ccc(NC(=O)CSc2c3c(nc4cc(Cl)ccc24)CCCC3)cc1OC`: the AC50 is 31.7 µM.
As for `C=CCOc1ccccc1CN(C(=O)CCl)c1ccc2c(c1)OCO2`, the AC50 was 1.28 µM.
Consider `N#CC1=C(N)Oc2n[nH]c(-c3ccc(F)cc3)c2C1c1cccc(OC(=O)N2CCOCC2)c1` (centres undefined), for which the concentration at half-maximal activity (AC50) was 26.2 µM.
For `CCOc1ccc(S(=O)(=O)NCc2cccnc2)cc1C`, the AC50 is > 38 µM (inactive).
Regarding `COc1cc(/C=C(\C#N)C(=O)Nc2ccc3c(c2)OCCO3)ccc1O`, the AC50 was > 38 µM (inactive).
`N#CC1=C(N)Oc2n[nH]c(-c3ccc(F)cc3)c2C1c1ccncc1` (centres undefined): the AC50 was 8.32 µM.
As to `CC(=O)N(C1=C(Cl)C(=O)c2ccccc2C1=O)C1CCCCC1`, the half-maximal activity concentration (AC50) was 2.79 µM.
Consider `O=C(c1cccc(C(F)(F)F)c1)C1CCCN(Cc2ncc[nH]2)C1` (centres undefined), for which the AC50 was > 38 µM (inactive).
As for `COC(=O)c1cc(NC(=O)Nc2ccccc2OC)cc(C(=O)OC)c1`, the AC50 was > 38 µM (inactive).
The value for `CCCCOc1ccc(C2C3CN(C(=O)OCC)CC=C3C(C#N)=C(N)C2(C#N)C#N)cc1OC` (centres undefined) was > 38 µM (inactive); that for `Cn1nc([N+](=O)[O-])nc1Sc1nnc(-c2ccccc2)o1` was > 38 µM (inactive).
`COc1cccc(N(C(=O)CCl)C(C(=O)NCCc2ccccc2)c2cccs2)c1` (centres undefined): the AC50 is 1.29 µM.
Take `COc1cc(C2(c3ccc(O)c(OC)c3)C(=O)Nc3c(Br)cc(Br)cc32)ccc1O`: the AC50 is 21.5 µM.
The value for `Cc1cc(C)cc(OC(=O)CS(=O)c2ccc(C(F)(F)F)cc2[N+](=O)[O-])c1` (centres undefined) was > 38 µM (inactive); that for `CCOC(=O)c1cnc(-n2[nH]c(C)c(Cc3ccccc3)c2=O)[nH]c1=O` was > 38 µM (inactive); that for `Cc1nn(Cc2ccccc2)c2c1C(c1ccncc1)C(C#N)=C(N)O2` (centres undefined) was > 38 µM (inactive).
The value for `CC(=O)Nc1ccc(S(=O)(=O)NC2=C(N3CCN(c4ccc(F)cc4)CC3)C(=O)c3ccccc3C2=O)cc1` was 26.7 µM; that for `FC(F)(F)c1ccc(C2[C@H]3CN(Cc4cccnc4)[C@H](c4ccccc4)C34CC2(c2cccnc2)C4)cc1` (some centres undefined) was 5.51 µM; that for `O=c1cc(-c2ccccc2)[nH]n1-c1ccc([N+](=O)[O-])cc1` was 13.1 µM.
The value for `CN(Cc1ccc(Cl)s1)C(=O)CCl` was 19.3 µM; that for `CC(=O)n1cc(N(C(=O)CCl)c2ccc([N+](=O)[O-])cc2)c2ccccc21` was 4.74 µM; that for `CC1=NN(c2ccccc2)C(=O)/C1=C\c1ccc(Oc2ccc([N+](=O)[O-])cc2[N+](=O)[O-])cc1` was 3.48 µM.
Take `CCOC(=O)N1C(=O)[C@](c2ccc(Cl)cc2)(C(C)C)N1C(=O)OCC`: the half-maximal activity concentration (AC50) is 1.75 µM.
As to `CCOC(=O)c1c(OCC)[nH]c2c1cc(O)c1ccccc12`, the concentration at half-maximal activity (AC50) is 32.1 µM.
Turning to `CC(=O)C1=C(c2ccc(Br)cc2)C(=O)c2ccccc2C1=O`, the AC50 is 7.18 µM.
The value for `CCOc1ccccc1C1C(C#N)=C(N)Nc2onc(-c3ccccc3)c21` (centres undefined) was 33.4 µM.
The value for `Oc1ccc(C=Nc2ccc3ncccc3c2)c(O)c1` was 3.75 µM.
Take `Cc1ccc(NC(=O)c2nc(S(=O)(=O)Cc3ccccc3)ncc2Cl)cc1`: the AC50 was > 38 µM (inactive).
The value for `N#CC1=C(N)C(C#N)(C#N)[C@H](c2c(F)cccc2F)[C@H]2CC3(CC=C12)OCCO3` was > 38 µM (inactive); that for `Cn1c(=O)c([N+](=O)[O-])c(-n2cnc3ccccc32)c2ccccc21` was > 38 µM (inactive).
In the case of `O=C1C=Cc2ccccc2C1=O`, the AC50 is 14.9 µM.
Regarding `Nc1ccc2nc(N3CCOCC3)sc2c1`, the AC50 is > 38 µM (inactive).
The value for `Cc1ccc(-c2cc(=O)[nH][nH]2)c(C)c1` was 34.3 µM; that for `CCOc1ccccc1Oc1coc2cc(OC(=O)c3ccco3)ccc2c1=O` was > 38 µM (inactive).
Turning to `CCOC(=O)c1c(C)sc2c1N(C(=O)CCl)c1cc(Cl)ccc1S2`, the AC50 was 3.37 µM.
Consider `COC(=O)c1c(NC(=O)/C=C/C(=O)O)sc(C)c1-c1ccc(C(C)C)cc1`, for which the AC50 is 11.6 µM.
On to `Fc1ccc(-[n+]2nc(Nc3ccccc3)sc2-c2c3ccccc3cc3ccccc23)cc1`, for which the AC50 was 12.4 µM.
For the compound `CCOC(=O)c1nn(-c2ccc(C)cc2)c(=O)c2c(N)scc12`, the AC50 is > 38 µM (inactive).
For `COC1=CC(=O)C(O)=C(CCCCCCC/C=C/CCCCCCCC2=C(O)C(=O)C=C(OC)C2=O)C1=O`, the half-maximal activity concentration (AC50) is 4.64 µM.
The value for `COc1cc(C2C(C#N)=C(N)Oc3c2c(-c2ccccc2)nn3-c2ccccc2)cc(OC)c1OC` (centres undefined) was 29.9 µM.
The value for `CC(=O)N(CCC(Cc1ccccc1)c1ccc2c(c1)OCO2)Cc1ccccc1F` (centres undefined) was 3.99 µM; that for `Nc1ccc(N2CCCCC2)c2nonc12` was 15.9 µM; that for `O=C(Oc1ccccc1N1C(=O)CCC1=O)c1ccco1` was > 38 µM (inactive).
The value for `Cc1ccc(C2CC(c3cccs3)=NN2C(=O)CSC2=NCCS2)cc1` (centres undefined) was 9.96 µM; that for `O=C(NC1CCCC1)C(c1ccc(F)cc1)N(Cc1ccc(Cl)cc1)C(=O)CCl` (centres undefined) was 5.55 µM.
Turning to `O=C(Oc1ccc(Br)cc1C(=S)N1CCCCC1)c1cc([N+](=O)[O-])cc([N+](=O)[O-])c1`, the AC50 was > 38 µM (inactive).
On to `O=C(CCl)N(Cc1ccccc1)c1ccccc1`, for which the AC50 is 4.16 µM.
With `COC(=O)C1=NN(C(C)=O)C2(CC(=O)N(c3cc(C)cc(C)c3)C2=O)C1` (centres undefined), the AC50 is > 38 µM (inactive).
Regarding `COc1ccc(N2C(=O)C(Cl)=C(N3CCOCC3)C2=O)cc1`, the AC50 is > 38 µM (inactive).
Regarding `CCOC(=O)c1c(NC(=O)/C=C/C(=O)O)sc(C)c1-c1ccc(F)cc1`, the AC50 was 18 µM.
`CC1=NNC(=O)C1C(c1ccc(F)cc1)C(C#N)C#N` (centres undefined): the AC50 is > 38 µM (inactive).
The value for `O=c1[nH]cc(O)c(=O)[nH]1` was 7.38 µM; that for `Cc1ccc(N(NC(=O)C(O)(c2ccccc2)c2ccccc2)C(=O)CCl)cc1` was 1.57 µM; that for `CCOC(=O)c1nc(C)n(-c2ccc(Cl)cc2)n1` was > 38 µM (inactive).
Consider `O=c1c2ccccc2nc2n1CCC2`, for which the half-maximal activity concentration (AC50) is 22.9 µM.
For `O=C1/C(=C/Nc2ccc3c(c2)OCO3)CCc2ccccc21`, the concentration at half-maximal activity (AC50) is 4 µM.
Turning to `O=C(NC1CCCCC1)C(c1cccnc1)N(C(=O)CCl)c1cccc(Cl)c1` (centres undefined), the AC50 was 3 µM.
`CCOC(=O)c1c(CCl)nc2ccccc2c1-c1ccccc1`: the concentration at half-maximal activity (AC50) was 8.34 µM.
With `O=C(NC1(O)C(=O)c2ccccc2C1=O)c1c(Cl)cccc1Cl`, the AC50 was 12.5 µM.
For `Cc1ccc(C[n+]2c(-c3ccc(C)cc3)cc(-c3ccc(C)cc3)cc2-c2ccc(C)cc2)cc1`, the AC50 was 6.62 µM.
Take `COC(=O)CSc1nc(N)c2c3c(sc2n1)C(c1ccccc1)SC(c1ccccc1)C3` (centres undefined): the AC50 was > 38 µM (inactive).
Consider `CCOC(=O)C1=C(O)c2ccccc2C(=O)/C1=C\c1ccc(CC)cc1`, for which the concentration at half-maximal activity (AC50) is 7.05 µM.
For the compound `CS(=O)(=O)c1nc([N+](=O)[O-])nn1CCCc1ccccc1`, the AC50 was 10.7 µM.
For the compound `COC(=O)CN1C(c2ccc(Cl)cc2)=Nc2ccc(Cl)cc2C1c1ccccc1` (centres undefined), the concentration at half-maximal activity (AC50) was 5.48 µM.
The value for `O=C1C=C(Nc2ccccc2C(=O)O)c2ccccc2C1=O` was 6.57 µM; that for `CC1CCc2c(sc3nc(C(C)(C)C)nc(N4CCN(C(=O)CCl)CC4)c23)C1` (centres undefined) was 2.61 µM.
On to `O=C(O)CSc1cc(NS(=O)(=O)c2ccc(Br)cc2)c2ccccc2c1O`, for which the AC50 was 2.2 µM.
The value for `Cc1ccc(NC2=C(NC(=O)c3ccccc3)C(=O)c3ccccc3C2=O)cc1Cl` was 7.45 µM; that for `CCCCCC(=O)Cc1cc(O)cc2c1C(=O)Oc1cc(O)c(C(=O)O)c(CCCCC)c1O2` was 6.09 µM.
Turning to `O=C(Cc1ccccc1F)Nc1nc2ccccc2[nH]1`, the AC50 is > 38 µM (inactive).
As for `Cc1oc2c(c1C(=O)NCc1cccnc1)C(=O)c1ccccc1C2=O`, the AC50 is 1.4 µM.
For the compound `CCc1oc2ccccc2c1C(=O)c1cc(Br)c(O)c(Br)c1`, the half-maximal activity concentration (AC50) was 9.46 µM.
For the compound `O=C(CCN1C(=O)/C(=C/c2cccs2)SC1=S)Nc1ccc(C(=O)O)c(O)c1`, the concentration at half-maximal activity (AC50) is 19 µM.
As to `CC(=O)Nc1ccc(S(=O)(=O)/N=C2\C(=O)c3ccccc3C([O-])=C2n2cc[n+](-c3ccccn3)c2)cc1`, the AC50 was 5.71 µM.
For `COc1ccc2nc(SCC(=O)NN)cc(C)c2c1`, the AC50 is > 38 µM (inactive).
Consider `O=c1[nH]c(Nc2ccccc2Cl)cc2ccccc12`, for which the AC50 was 15.5 µM.
The value for `CC1=NN(c2ccccc2)C(=O)/C1=C/c1ccc(Cl)cc1` was 4.65 µM; that for `CC(=O)NC1C(=O)N(CCN2CCOCC2)c2ccc(C)cc21` (centres undefined) was 21.6 µM; that for `CCOC(=O)CSc1n[nH]c(NC(=O)c2cccc(C(F)(F)F)c2)n1` was > 38 µM (inactive).
In the case of `O=C1C(Nc2ccc(O)cc2)=C/C(=N/S(=O)(=O)c2cccs2)c2ccccc21`, the AC50 is 0.179 µM.
For `c1ccc(-c2ccc(C3CCCN3)cc2)cc1` (centres undefined), the AC50 was > 38 µM (inactive).
Turning to `Cc1ccc(S(=O)(=O)Nc2c(O)ccc3ccccc23)cc1`, the AC50 is 8.05 µM.
The value for `CCCc1[nH]nc2c1C(c1ccsc1)C(C#N)=C(N)O2` (centres undefined) was > 38 µM (inactive).
`COc1ccc(NC(=O)c2cccc(N3C(=O)C4C5C=CC(C5)C4C3=O)c2)cc1Cl` (centres undefined): the AC50 was > 38 µM (inactive).
In the case of `Cc1ccc2nc(-c3cccs3)oc(=O)c2c1`, the AC50 was > 38 µM (inactive).
`NC1=NN(c2cccc(C(=O)O)c2)C(=O)C1`: the AC50 was 29.4 µM.
The value for `COc1ccc(OC)c(N2C(=O)C(Cl)=C(N3CCOCC3)C2=O)c1` was > 38 µM (inactive).
As to `CN(CCc1cnn(C)c1)C(=O)C1CCC(=O)N(CC2CCCCC2)C1` (centres undefined), the AC50 was > 38 µM (inactive).
For `O=C(NNC(=O)c1ccc2ccccc2c1O)c1ccccc1Cl`, the AC50 is > 38 µM (inactive).
Turning to `Cc1[nH]nc2c1C(c1cccs1)C(C#N)=C(N)O2` (centres undefined), the AC50 is > 38 µM (inactive).
Consider `O=S(=O)(CCSc1nc2ccccc2s1)c1nc2ccccc2s1`, for which the AC50 was 27.3 µM.
The value for `O=C(O)CC1S/C(=N/N=C/c2ccc(-c3ccccc3[N+](=O)[O-])o2)NC1=O` (centres undefined) was 9.4 µM.

These data come from PubChem BioAssay AID449750 (Broad Institute, 2010).
